According to patent publication US20040116420A1 (priority 2001, published 2004):

Tests used:
HSV2 = test: Antiviral activity 2, plaque formation in HEL cells; assay type: cell-based, HSV-2; conditions: Human alphaherpesvirus 2, 72 h, 3 days
Protocol: (§1) An Assay Method for Antiviral Activity 2
(§2) The HEL cells were sowed on a 48-well plate and then cultured overnight. The culture supernatant was removed, and 100 μl of 2% FBS-DMEM containing 40 Plaque-forming units of HSV-1, HSV-2, VZV, or CMV was added. A viral solution Was removed 1 hour later, and 500 μl of 2% FBS-DMEM containing 0.5% methylcellulose comprising 50, 25, 12.5, 6.3, 3.2, or 1.6 μM of the test compound was added. In this case, a substance to which 2% FBS-DMEM containing 0.5% methylcellulose not comprising any test compound had been added was designated as a control. In the case of HSV-1, HSV-2, or VZV, incubation was carried out in the presence of 5% CO2 at 37° C. for 3 days. In the case of CMV, incubation was carried out under the same conditions for 14 days. After they were immobilized on formalin and stained with bromophenol blue, the amount of plaque formed was counted, and the ratio of plaque formation of the drug-containing reaction system relative to the control was determined. The concentration of the drug with which the ratio of plaque formation reaches 50% was calculated and determined to be IC50. Concerning HSV-1, an aciclovir-resistant thymidine kinase variant and a DNA polymerase variant were examined in addition to a general aciclovir-sensitive strain.

[1] = tested on: HSV1 DNA polymerase variant; test: as above; assay type: cell-based, HSV-1; conditions: Human alphaherpesvirus 1, HEL, 72 h, read-out: Antiviral activity: IC50, HSV1 DNA polymerase variant
Protocol: as §1, §2

[2] = tested on: HSV1 Thimidine kinase variant; test: as above; assay type: cell-based, HSV-1; conditions: Human alphaherpesvirus 1, HEL, 72 h, read-out: Antiviral activity: IC50, HSV1 Thimidine kinase variant
Protocol: as §1, §2

HSV1 Sensitive strain = test: as above; assay type: cell-based, HSV-1; conditions: Human alphaherpesvirus 1, 72 h, 3 days
Protocol: as §1, §2

HCMV = test: as above; assay type: cell-based, CMV; conditions: Human betaherpesvirus 5, 336 h, 14 days
Protocol: as §1, §2

HSV-1 protease = target: T1, HSV-1 protease (Human herpesvirus 1, UniProt P10210); test: Enzymatic assay for HSV-1 protease (assembly) inhibitor, fluorescence polarization; assay type: biochemical; conditions: read-out: HSV-1 Enzyme inhibition IC50
T1 construct: 6xHis (N); made in house; host or cells: baculovirus expression system
How it was run: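 His6-tagged HSV-1 UL26 protease, baculovirus-expressed, preincubated 30 min at RT with compound in 1 M citrate/phosphate buffer pH 7.4 with 20% glycerol and 2 mM TCEP. A biotin-HTYLQA*SERFRIK-DTAF substrate was then cleaved for 60 min at RT, stopped with avidin, and read by fluorescence polarization versus no-inhibitor control.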

VZV = test: Antiviral activity 2, plaque formation in HEL cells; assay type: cell-based; conditions: Human alphaherpesvirus 3, 72 h, 3 days
Protocol: as §1, §2

Human plasma stability = assay type: in vitro ADME
Protocol: An Assay Method for Human Plasma Stability Human plasma was thawed, 200 μl each thereof was placed in each cell of a 96-well plate immediately thereafter, and 4 μl of solution of each test compound in 1 mM DMF was added thereto. A microplate reader for fluorescence absorption was used to assay changes in fluorescence, and half life was determined based on the changes.

HSV-1 = test: Antiviral activity, HSV-1 in Vero cells, plaque method; assay type: cell-based; conditions: Human alphaherpesvirus 1, 20 hours, 90% inhibition of plaque formation
How it was run: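 HSV-1 (50,000 pfu in 2% FBS-DMEM) was added to Vero cells and removed, then the compound was applied in 2% FBS-DMEM for 20 h at 37° C, 5% CO2. After a freeze-thaw, virus yield in the medium was titred by plaque assay. EC90 is the concentration giving 90% plaque reduction versus the compound-free control.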

Vero cells = test: Cytotoxicity, Vero cells, Alamar Blue; assay type: cell-based; conditions: 25 μM, 20 hours
How it was run: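 Overnight-seeded Vero cells were exposed to 25 μM compound in 2% FBS-DMEM for 20 h at 37 °C, 5% CO2. Alamar Blue was then added for about 6 h. The absorbance ratio relative to compound-free control gave the living-cell ratio.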

T1 sequence (P10210 1-247): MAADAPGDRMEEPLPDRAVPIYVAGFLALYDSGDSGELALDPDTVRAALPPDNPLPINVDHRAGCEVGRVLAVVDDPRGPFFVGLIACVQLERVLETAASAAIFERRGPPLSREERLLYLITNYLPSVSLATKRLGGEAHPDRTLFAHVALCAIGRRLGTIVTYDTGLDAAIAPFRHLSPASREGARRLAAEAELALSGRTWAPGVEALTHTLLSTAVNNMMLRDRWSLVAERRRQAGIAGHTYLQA

Row | Structure (SMILES) | IC50 (HSV2) [µM] | IC50 [1] [µM] | IC50 [2] [µM] | IC50 (HSV1 Sensitive strain) [µM] | IC50 (HCMV) [µM] | IC50 (HSV-1 protease) [µM] | IC50 (VZV) [µM] | half-life at 19.6 μM (Human plasma stability) [h] | EC90 (HSV-1) [µM] | Cell viability (% of control) (Vero cells) [%]
1 | Cc1c(NC(=O)OC(C)(C)C)ccc2nc(N[C@@H](Cc3ccccc3)C(=O)N(C)CCc3ccccn3)oc(=O)c12 [Compound No.21, (5-Methyl-2-{1-[methyl-1S-(2-pyridin-2-yl-ethyl)-carbamoyl]-2-phenyl-ethylamino}-4-oxo-4H-benzo[d][1,3]oxazin-6-yl)-carbamic Acid Tert-Butyl Ester] | 10.7 | 6.9 | 16.1 | 6.1 | > 5 | 1.5 | 6.4 | 1.78 | 5.9 | 53.2
2 | Cc1c(NC(=O)OC(C)(C)C)ccc2nc(N(C)[C@@H](Cc3ccccc3)C(=O)NCc3ccccn3)oc(=O)c12 [Compound No.22, [5-Methyl-2-(methyl-{2-phenyl-1S-[(pyridin-2-ylmethyl)-carbamoyl]-ethyl}-amino)-4-oxo-4H-benzo[d][1,3]oxazin-6-yl]-carbamic Acid Tert-Butyl Ester] | 16.6 | 14.3 | 16.3 | 9.5 | > 25 | 1.8 | > 25 | 3.02 | 9 | 66.5
3 | Cc1c(NC(=O)OC(C)(C)C)ccc2nc(NC3(C(=O)N(C)CCc4ccncc4)CCCCC3)oc(=O)c12 [Compound No.129, (5-Methyl-2-{1-[methyl-(2-pyridin-4-yl-ethyl)-carbamoyl]-cyclohexylamino}-4-oxo-4H-benzo[d][1,3]oxazin-6-yl)-carbamic acid tert-butyl ester] | 10.3 | 8.7 | 17.7 | 5.8 | > 5 | 1.1 | > 5 | > 15 | 5.8 | 
